Results: patent US12637413B2, “Fatty acid amide hydrolase (FAAH) cleavable prodrugs of thyromimetics and combination with peripherally restricted FAAH inhibitors” (Autobahn Therapeutics, Inc., priority 2021, dated 2026)

What follows are compounds tested against T1, recombinant human FAAH (rhFAAH) (Homo sapiens, UniProt O00519) (assay: FAAH substrate evaluation (acid metabolite formation)). Conditions: observed rate constant for acid metabolite formation; 0.5 ng/μL rhFAAH, 1 μM test compound, room temperature, 0-60 minutes.
T1 construct: purchased Cayman Chemical (Ann Arbor, MI, USA)
T1 sequence (O00519 1-579): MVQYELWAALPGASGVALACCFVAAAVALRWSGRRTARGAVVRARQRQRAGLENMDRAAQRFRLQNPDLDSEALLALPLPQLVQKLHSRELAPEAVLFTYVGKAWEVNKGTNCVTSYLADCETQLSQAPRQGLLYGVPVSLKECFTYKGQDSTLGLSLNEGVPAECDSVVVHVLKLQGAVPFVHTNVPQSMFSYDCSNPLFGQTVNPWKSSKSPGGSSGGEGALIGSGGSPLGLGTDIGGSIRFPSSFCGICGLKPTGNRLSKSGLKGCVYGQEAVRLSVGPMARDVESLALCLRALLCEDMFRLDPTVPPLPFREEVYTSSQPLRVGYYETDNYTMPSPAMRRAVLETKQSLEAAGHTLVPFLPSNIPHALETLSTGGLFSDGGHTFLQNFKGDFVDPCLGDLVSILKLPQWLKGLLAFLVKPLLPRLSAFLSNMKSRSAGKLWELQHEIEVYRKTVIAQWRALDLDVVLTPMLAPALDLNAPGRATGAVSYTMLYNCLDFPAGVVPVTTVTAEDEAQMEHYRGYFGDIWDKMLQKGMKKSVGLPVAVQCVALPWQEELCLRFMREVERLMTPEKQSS
Assay type: biochemical
Description: Purified recombinant human FAAH (rhFAAH) was purchased from Cayman Chemical (Ann Arbor, MI, USA). The total volume for each incubation was 400 μL containing a final 0.5 ng/μL rhFAAH, 1 μM test compound, 1.25% ethanol or 1 μM PF-3845 (FAAH inhibitor), and 0.1% bovine serum albumin in Tris-EDTA buffer at pH 8.0). The positive control was LL-341001. The incubation was conducted at the room temperature. At 0, 5, 15, 30 and 60 minutes, an aliquot of 30 μL reaction mixtures was removed and mixed with 300 μL acetonitrile containing 5 ng/mL terfenadine and 10 ng/mL tolbutamide as internal standards to quench the reaction. The resulting mixture was centrifuged at 4000 rpm, 4° C. for 15 minutes, and 100 μL supernatant was ready for LC-MS/MS analysis to measure the formation of acid metabolite.
Acquity Ultra Performance LC system from Waters was used for sample analysis. The chromatography was performed on a reverse phase Kinetex 2.6 μm C18 column, 2.1×30 mm, 100 Å. The mobile phase A comprised of 0.1% formic acid in water and mobile phase B comprised of 0.1% formic acid in acetonitrile with a 2-min run time at the flow rate of 0.8 mL/min for the acid metabolite from positive control or a 1.5 min run time at the flow rate of 0.9 mL/min for the acid metabolite of test compounds. The mass spectrometer (API-5500 and API Q Trap 4000 Applied Biosystems/MDS SCIEX Instruments, Framingham, MA, USA) was operated under ESI positive or negative ion MRM mode.
The formation of acid metabolite was monitored and quantified using one calibration point of 1 μM. The observed rate constant (ke) for the acid metabolite formation was calculated by plotting the metabolite concentration versus time of incubation with the slope being ke and is shown in Table 1.

| Compound | ke |
| --- | --- |
| CCNC(=O)COc1cc(Cl)c(Cc2ccc(O)c(C(C)C)c2)c(Cl)c1 [Compound 2] | A (ke is more than or equal to 0.1) |
| CCCNC(=O)COc1cc(Cl)c(Cc2ccc(O)c(C(C)C)c2)c(Cl)c1 [Compound 3] | A (ke is more than or equal to 0.1) |
| C=CCNC(=O)COc1cc(Cl)c(Cc2ccc(O)c(C(C)C)c2)c(Cl)c1 [Compound 4] | A (ke is more than or equal to 0.1) |
| C#CCNC(=O)COc1cc(Cl)c(Cc2ccc(O)c(C(C)C)c2)c(Cl)c1 [Compound 5] | A (ke is more than or equal to 0.1) |
| CC(C)c1cc(Cc2c(Cl)cc(OCC(=O)NCCO)cc2Cl)ccc1O [Compound 6] | A (ke is more than or equal to 0.1) |
| CC(C)c1cc(Cc2c(Cl)cc(OCC(=O)NC[C@@H](C)O)cc2Cl)ccc1O [Compound 7] | B (ke is less than 0.1 and more than 0) |
| CC(C)c1cc(Cc2c(Cl)cc(OCC(=O)NC[C@H](C)O)cc2Cl)ccc1O [Compound 8] | B (ke is less than 0.1 and more than 0) |
| CC(C)c1cc(Cc2c(Cl)cc(OCC(=O)N[C@H](C)CO)cc2Cl)ccc1O [Compound 9] | A (ke is more than or equal to 0.1) |
| CC(C)c1cc(Cc2c(Cl)cc(OCC(=O)N[C@@H](C)CO)cc2Cl)ccc1O [Compound 10] | A (ke is more than or equal to 0.1) |
| CC(C)c1cc(Cc2c(Cl)cc(OCC(=O)NC(CO)CO)cc2Cl)ccc1O [Compound 11] | B (ke is less than 0.1 and more than 0) |
| CC(C)c1cc(Cc2c(Cl)cc(OCC(=O)NCCN)cc2Cl)ccc1O [Compound 12] | B (ke is less than 0.1 and more than 0) |
| CC(C)c1cc(Cc2c(Cl)cc(OCC(=O)NCCS(=O)O)cc2Cl)ccc1O [Compound 13] | B (ke is less than 0.1 and more than 0) |
| CC(C)c1cc(Cc2c(Cl)cc(OCC(=O)NCCF)cc2Cl)ccc1O [Compound 14] | A (ke is more than or equal to 0.1) |
| CC(C)c1cc(Cc2c(Cl)cc(OCC(=O)NCC(F)F)cc2Cl)ccc1O [Compound 15] | A (ke is more than or equal to 0.1) |
| CC(C)c1cc(Cc2c(Cl)cc(OCC(=O)NCC(F)(F)F)cc2Cl)ccc1O [Compound 16] | A (ke is more than or equal to 0.1) |
| CC(C)c1cc(Cc2c(Cl)cc(OCC(=O)NC3CC3)cc2Cl)ccc1O [Compound 17] | A (ke is more than or equal to 0.1) |
| CC(C)c1cc(Cc2c(Cl)cc(OCC(=O)NC3COC3)cc2Cl)ccc1O [Compound 18] | A (ke is more than or equal to 0.1) |
| CC(C)c1cc(Cc2c(Cl)cc(OCC(=O)N(C)C)cc2Cl)ccc1O [Compound 19] | B (ke is less than 0.1 and more than 0) |
| CC(C)c1cc(Cc2c(Cl)cc(OCC(=O)Nc3ccccc3O)cc2Cl)ccc1O [Compound 20] | A (ke is more than or equal to 0.1) |
| CC(C)c1cc(Cc2c(Cl)cc(OCC(=O)Nc3cccc(O)c3)cc2Cl)ccc1O [Compound 21] | A (ke is more than or equal to 0.1) |
| CC(C)c1cc(Cc2c(Cl)cc(OCC(=O)NCc3ccccc3)cc2Cl)ccc1O [Compound 22] | A (ke is more than or equal to 0.1) |
| CC(C)c1cc(Cc2c(Cl)cc(OCC(=O)NCCc3ccccc3)cc2Cl)ccc1O [Compound 23] | B (ke is less than 0.1 and more than 0) |
| CC(C)c1cc(Cc2c(Cl)cc(OCC(=O)NCCc3ccc(O)c(O)c3)cc2Cl)ccc1O [Compound 24] | B (ke is less than 0.1 and more than 0) |
| CC(C)c1cc(Cc2c(Cl)cc(OCC(=O)Nc3cccc(F)c3)cc2Cl)ccc1O [Compound 25] | A (ke is more than or equal to 0.1) |

| Compound | ke |
| --- | --- |
| CC(C)c1cc(Cc2c(Cl)cc(OCC(=O)NO)cc2Cl)ccc1O [Compound 26] | A (ke is more than or equal to 0.1) |
| CC(C)c1cc(Cc2c(Cl)cc(OCC(=O)NN)cc2Cl)ccc1O [Compound 27] | A (ke is more than or equal to 0.1) |
| CONC(=O)COc1cc(Cl)c(Cc2ccc(O)c(C(C)C)c2)c(Cl)c1 [Compound 28] | A (ke is more than or equal to 0.1) |
| CC(C)c1cc(Cc2c(Cl)cc(OCC(=O)NCC#N)cc2Cl)ccc1O [Compound 29] | A (ke is more than or equal to 0.1) |
| CC(C)c1cc(Cc2c(Cl)cc(OCC(=O)NCCS(C)(=O)=O)cc2Cl)ccc1O [Compound 30] | A (ke is more than or equal to 0.1) |
| CNC(=O)COc1cc(Cl)c(Cc2ccc(O)c(C(C)C)c2F)c(Cl)c1 [Compound 31] | A (ke is more than or equal to 0.1) |
| CC(C)c1c(O)ccc(Cc2c(Cl)cc(OCC(=O)N(C)C)cc2Cl)c1F [Compound 32] | A (ke is more than or equal to 0.1) |
| CCNC(=O)COc1cc(Cl)c(Cc2ccc(O)c(C(C)C)c2F)c(Cl)c1 [Compound 33] | A (ke is more than or equal to 0.1) |
| CCN(C)C(=O)COc1cc(Cl)c(Cc2ccc(O)c(C(C)C)c2F)c(Cl)c1 [Compound 34] | C (ke is 0) |
| CC(C)c1c(O)ccc(Cc2c(Cl)cc(OCC(N)=O)cc2Cl)c1F [Compound 35] | A (ke is more than or equal to 0.1) |
| CC(C)c1c(O)ccc(Cc2c(Cl)cc(OCC(=O)NCCF)cc2Cl)c1F [Compound 36] | A (ke is more than or equal to 0.1) |
| CNC(=O)COc1cc(Cl)c(Cc2ccc(O)c(C(C)C)c2)c(Cl)c1F [Compound 37] | B (ke is less than 0.1 and more than 0) |
| CC(C)c1cc(Cc2c(Cl)cc(OCC(=O)N(C)C)c(F)c2Cl)ccc1O [Compound 38] | B (ke is less than 0.1 and more than 0) |
| CNC(=O)COc1cc(Cl)c(Cc2ccc(O)c(C(C)C)c2F)c(Cl)c1F [Compound 39] | B (ke is less than 0.1 and more than 0) |
| CC(C)c1c(O)ccc(Cc2c(Cl)cc(OCC(=O)N(C)C)c(F)c2Cl)c1F [Compound 40] | B (ke is less than 0.1 and more than 0) |
| CNC(=O)COc1cc(F)c(Cc2ccc(O)c(C(C)C)c2)c(Cl)c1F [Compound 42] | A (ke is more than or equal to 0.1) |
| CON(C)C(=O)COc1cc(Cl)c(Cc2ccc(O)c(C(C)C)c2F)c(Cl)c1 [Compound 44] | A (ke is more than or equal to 0.1) |
| CC(C)c1c(O)ccc(Cc2c(Cl)cc(OCC(=O)NN(C)C)cc2Cl)c1F [Compound 45] | A (ke is more than or equal to 0.1) |
| COc1ccc(NC(=O)COc2cc(Cl)c(Cc3ccc(O)c(C(C)C)c3)c(Cl)c2)cn1 [Compound 101, 2-(3,5-dichloro-4-{[4-hydroxy-3-(propan-2-yl)phenyl]methyl}phenoxy)-N-(6-methoxypyridin-3-yl)acetamide] | A (ke is more than or equal to 0.1) |
| Cc1noc(NC(=O)COc2cc(Cl)c(Cc3ccc(O)c(C(C)C)c3)c(Cl)c2)c1C [Compound 103, 2-(3,5-dichloro-4-(4-hydroxy-3-isopropylbenzyl)phenoxy)-N-(3,4-dimethylisoxazol-5-yl)acetamide] | A (ke is more than or equal to 0.1) |
| CC(C)c1cc(Cc2c(Cl)cc(OCC(=O)Nc3cccnn3)cc2Cl)ccc1O [Compound 104, 2-(3,5-dichloro-4-(4-hydroxy-3-isopropylbenzyl)phenoxy)-N-(pyridazin-3-yl)acetamide] | A (ke is more than or equal to 0.1) |
| CC(C)c1cc(Cc2c(Cl)cc(OCC(=O)NC3CCCCC3)cc2Cl)ccc1O [Compound 105, N-cyclohexyl-2-(3,5-dichloro-4-(4-hydroxy-3-isopropylbenzyl)phenoxy)acetamide] | C (ke is 0) |
| CC#CCNC(=O)COc1cc(Cl)c(Cc2ccc(O)c(C(C)C)c2)c(Cl)c1 [Compound 106, N-(but-2-yn-1-yl)-2-(3,5-dichloro-4-(4-hydroxy-3-isopropylbenzyl)phenoxy)acetamide] | B (ke is less than 0.1 and more than 0) |
| CC#CCN(C)C(=O)COc1cc(Cl)c(Cc2ccc(O)c(C(C)C)c2)c(Cl)c1 [Compound 107, N-(but-2-yn-1-yl)-2-(3,5-dichloro-4-(4-hydroxy-3-isopropylbenzyl)phenoxy)-N-methylacetamide] | B (ke is less than 0.1 and more than 0) |
